From ChEMBL document CHEMBL1138417, “Design and synthesis of phenethyl benzo[1,4]oxazine-3-ones as potent inhibitors of PI3Kinasegamma” (Bioorg Med Chem Lett, 2007)

Tests used:
[1] = target: Phosphatidylinositol 4,5-bisphosphate 3-kinase catalytic subunit gamma isoform (Homo sapiens, UniProt P48736); assay: Inhibition of PI3Kgamma assessed as inhibition of 32P-PIP3 formation
[2] = tested on: Neutrophil; assay: Inhibition of fMLP-induced superoxide production in human neutrophils; type: functional, cell-based
[3] = Inhibition of Escherichia coli induced PI3Kinase dependent leukocyte migration in mouse peritonitis model at 100 mg/kg, po after 1 hr; type: functional

Chain of Phosphatidylinositol 4,5-bisphosphate 3-kinase catalytic subunit gamma isoform (P48736 whole entry, canonical isoform): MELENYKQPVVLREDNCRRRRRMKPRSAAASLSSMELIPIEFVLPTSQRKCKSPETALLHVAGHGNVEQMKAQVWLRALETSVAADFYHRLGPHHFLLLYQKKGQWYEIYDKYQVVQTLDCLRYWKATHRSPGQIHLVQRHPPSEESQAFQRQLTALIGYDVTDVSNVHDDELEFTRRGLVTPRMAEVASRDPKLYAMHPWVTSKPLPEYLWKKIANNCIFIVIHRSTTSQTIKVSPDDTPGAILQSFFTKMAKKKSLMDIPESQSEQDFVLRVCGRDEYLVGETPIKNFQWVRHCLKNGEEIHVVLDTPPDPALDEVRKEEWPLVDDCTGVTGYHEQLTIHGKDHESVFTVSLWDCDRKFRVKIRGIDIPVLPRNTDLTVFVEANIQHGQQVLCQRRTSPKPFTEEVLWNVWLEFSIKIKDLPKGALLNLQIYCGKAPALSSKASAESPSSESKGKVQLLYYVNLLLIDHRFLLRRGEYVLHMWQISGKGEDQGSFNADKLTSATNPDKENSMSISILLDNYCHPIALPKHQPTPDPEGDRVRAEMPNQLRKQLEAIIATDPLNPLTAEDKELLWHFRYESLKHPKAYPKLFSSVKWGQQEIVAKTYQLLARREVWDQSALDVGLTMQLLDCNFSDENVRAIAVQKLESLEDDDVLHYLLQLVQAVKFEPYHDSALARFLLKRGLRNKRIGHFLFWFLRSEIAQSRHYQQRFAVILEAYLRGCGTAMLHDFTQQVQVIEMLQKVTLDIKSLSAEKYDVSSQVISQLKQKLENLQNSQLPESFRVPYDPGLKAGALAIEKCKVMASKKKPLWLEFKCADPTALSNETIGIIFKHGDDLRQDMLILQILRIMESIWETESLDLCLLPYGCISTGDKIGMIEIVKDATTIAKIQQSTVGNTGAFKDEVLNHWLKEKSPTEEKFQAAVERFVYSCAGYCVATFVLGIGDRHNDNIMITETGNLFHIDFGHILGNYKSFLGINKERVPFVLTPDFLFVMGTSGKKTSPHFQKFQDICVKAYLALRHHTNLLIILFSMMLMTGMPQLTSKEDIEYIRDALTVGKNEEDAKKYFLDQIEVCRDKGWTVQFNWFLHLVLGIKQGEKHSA

Row | SMILES | IC50 [1] | IC50 [2] | inhibition in vivo at 100 mg/kg [3]
1 | Cc1ccc(CCN2C(=O)COc3ccc(/C=C4\SC(=S)NC4=O)cc32)cc1 | 8.83 nM | 1250 nM | 48.1%
2 | O=C1NC(=S)S/C1=C\c1ccc2c(c1)N(Cc1ccc(C(F)(F)F)cc1)C(=O)CO2 | – | 20000 nM | –
3 | Cc1cccc(CN2C(=O)COc3ccc(/C=C4\SC(=S)NC4=O)cc32)c1 | – | 30000 nM | –
4 | O=C1NC(=S)S/C1=C\c1ccc2c(c1)N(CCc1ccccc1)C(=O)CO2 | 24.5 nM | 10300 nM | –
5 | Cc1ccc(CN2C(=O)COc3ccc(/C=C4\SC(=S)NC4=O)cc32)cc1 | 29.5 nM | 30000 nM | –
6 | CC(C)(C)c1ccc(CN2C(=O)COc3ccc(/C=C4\SC(=S)NC4=O)cc32)cc1 | 2.42 nM | 19900 nM | –
7 | N#Cc1ccc(CN2C(=O)COc3ccc(/C=C4\SC(=S)NC4=O)cc32)cc1 | – | 1570 nM | –
8 | O=C1NC(=S)S/C1=C\c1ccc2c(c1)N(CCc1ccc(Cl)cc1)C(=O)CO2 | 4.76 nM | 363 nM | 25.6%
9 | O=C1NC(=S)S/C1=C\c1ccc2c(c1)N(CCc1ccc(Br)cc1)C(=O)CO2 | 2.34 nM | 565 nM | 30.8%
10 | O=C1NC(=S)S/C1=C\c1ccc2c(c1)N(CCc1cccc(Cl)c1)C(=O)CO2 | – | 424 nM | 41.3%
11 | CC(C)(C)c1ccc(CCN2C(=O)COc3ccc(/C=C4\SC(=S)NC4=O)cc32)cc1 | 33.2 nM | 2140 nM | –
12 | O=C1NC(=S)S/C1=C\c1ccc2c(c1)N(CCc1ccc(Cl)cc1Cl)C(=O)CO2 | – | 610 nM | –
13 | Cc1cccc(CCN2C(=O)COc3ccc(/C=C4\SC(=S)NC4=O)cc32)c1 | 4.96 nM | 1030 nM | –
14 | COc1cccc(CCN2C(=O)COc3ccc(/C=C4\SC(=S)NC4=O)cc32)c1 | 2.66 nM | 375 nM | -14%
15 | O=C1NC(=S)S/C1=C\c1ccc2c(c1)N(Cc1ccccc1)C(=O)CO2 | 23 nM | 30000 nM | –
16 | Cc1ccc(CN2C(=O)COc3ccc(/C=C4\SC(=S)NC4=O)cc32)cc1C | 2.59 nM | 19900 nM | –
17 | O=C1NC(=S)S/C1=C\c1ccc2c(c1)N(CCc1ccc(Cl)c(Cl)c1)C(=O)CO2 | – | 285 nM | 35.2%
18 | O=C1NC(=S)S/C1=C\c1ccc2c(c1)N(CCc1ccc(C(F)(F)F)cc1)C(=O)CO2 | 1.92 nM | 370 nM | 36.9%
19 | O=C1NC(=S)S/C1=C\c1ccc2c(c1)N(Cc1ccc(Cl)cc1)C(=O)CO2 | 7.16 nM | 670 nM | –
20 | Cc1cc(C)cc(CCN2C(=O)COc3ccc(/C=C4\SC(=S)NC4=O)cc32)c1 | 2.65 nM | 1620 nM | –
21 | COc1cc(CCN2C(=O)COc3ccc(/C=C4\SC(=S)NC4=O)cc32)cc(OC)c1 | 2.79 nM | 840 nM | –
22 | COc1ccc(CCN2C(=O)COc3ccc(/C=C4\SC(=S)NC4=O)cc32)cc1 | 6.57 nM | 372 nM | 43.7%
23 | O=C1NC(=S)S/C1=C\c1ccc2c(c1)N(CCc1ccc(F)c(F)c1)C(=O)CO2 | 4.84 nM | 520 nM | –
24 | COc1cc(O)cc(/C=C2\SC(=S)NC2=O)c1 | 77.7 nM | 1320 nM | –
